Experimental findings from patent US20140219995A1, “INHIBITORS OF BACTERIAL TYPE III SECRETION SYSTEM” (priority 2011, published 2014) are described below.

For data set [1], the system named is T3SS-mediated secretion of ExoS′-βLA fusion protein, P. aeruginosa strain MDM973. Nature of the data set: Effector-β-lactamase (ExoS′-βLA) secretion assay. The data set is classed as cell-based, Pseudomonas aeruginosa. The note with it: for IC50: Pseudomonas aeruginosa. The text has this:
Effector-β-Lactamase (βLA) Secretion Assays.
P. aeruginosa. A gene encoding an ExoS'-β-lactamase (βLA) fusion protein (comprised of 234 codons of P. aeruginosa effector ExoS fused to the TEM-1 β-lactamase gene lacking secretion signal codons) was constructed by splicing by overlap extension PCR (SOE-PCR) (Choi and Schweizer, 2005, BMC Microbiol., 5:30) using primers 5-10 (Table 3, above), sequence confirmed, cloned into lacI^Q-containing GATEWAY® vector pUCP24GW (see Moir, et al., 2007, J Biomol. Screen., 12:855-64) behind the lac promoter, and introduced into P. aeruginosa by electroporation (see Choi, et al., 2006, J. Microbiol. Methods, 64:391-7). Secretion of fusion proteins was detected by measuring the hydrolysis of the chromogenic β-lactamase substrate nitrocefin in clear 96-well microplates in a modification of a previously described assay (Lee, et al., 2007, Infect. Immun., 75:1089-98). Cells of strain MDM973 (PAK/pUCP24GW-exoS:blaM) were sub-cultured in the morning from overnight growths in LBG into 0.1 ml of LBGIE with or without test compounds and grown for 150 min. Nitrocefin (100 μg/ml final) was added, and A490 measurements taken every minute for 15 min in a Victor^3V 1420 Multilabel HTS Counter (PerkinElmer). Slopes were calculated as a relative measure of the quantity of the effector-βLA fusion protein secreted and were absolutely dependent on induction with IPTG, EGTA, and the presence of a functional pscC gene in the P. aeruginosa cells. Typical signal:background ratios were 6-10.

The subject of data set [2] is T3SS-mediated cytotoxicity of translocated effector protein ExoU in CHO cells. Description: Inhibition of P. aeruginosa ExoU-dependent CHO cell killing (translocation, LDH release). It is filed as cell-based. The conditions noted are these: Pseudomonas aeruginosa. The text has this: Inhibition of P. aeruginosa ExoU-Dependent CHO Cell Killing.
Pseudolipasin, which acts by direct inhibition of the ExoU phospholipase, was used as control inhibitor (Lee, et al, 2007, Infect. Immun., 75:1089-98).

Setting [3] is: read-out: Avg. Translocation IC50.

Each structure is given as a SMILES string. Read-outs that look alike come from different tables or passages of the source.

For `CC(Oc1ccc(Cl)cc1Cl)C(=O)NCCCc1ccc(F)cc1` (stereo not drawn) [MBX-2622], the melting point (as a rule, the temperature of the solid-liquid transition) was found to be 112 °C. Besides, the half-inhibitory concentration (IC50) – broadly, the point on the concentration scale where inhibition reaches its midpoint – in data set [1] (read-out: Avg. Secretion IC50) was above 100 µM.
On to `CC(Oc1ccc(Cl)cc1Cl)C(=O)OCCc1ccc(F)cc1` (stereo not drawn) [MBX-2717, 4-fluorophenethyl 2-(2,4-dichlorophenoxy)propanoate], for which the IC50 in data set [1] (read-out: Avg. Secretion IC50) is above 100 µM.
`CC(Oc1ccc(Cl)cc1Cl)C(=O)N1CCc2ccc(F)cc2C1` (stereo not drawn) [MBX-2190]: the 50% inhibitory concentration (IC50) was 95.6 µM in data set [1] (read-out: Avg. Secretion IC50), 95.6 µM in data set [1] (read-out: Secretion IC50), above 100 µM in data set [2] (setting [3]) and at least 100 µM in data set [2] (read-out: Translocation IC50).
With `CC(Oc1ccc(Cl)cc1Cl)C(=O)NCc1ccccc1Cl` (stereo not drawn) [MBX-1956], the melting point worked out at 113 °C. Besides, the IC50 in data set [2] (setting [3]) was 52.3 µM.
Turning to `COc1cc2c(cc1CNC(=O)C(C)Oc1ccc(Cl)cc1Cl)OCCO2` (stereo not drawn) [MBX-1998], the melting point was 152 °C. In addition, the IC50 in data set [1] (read-out: Avg. Secretion IC50) was found to be 17.6 µM. Moreover, the IC50 in data set [2] (setting [3]) was determined as 51.4 µM.
As to `C[C@@H](Oc1ccc(Cl)cc1Cl)C(=O)NCc1ccc2c(c1)OCO2` [MBX-1684], in data set [1] (read-out: Avg. Secretion IC50), the IC50 amounted to 3.7 µM.
`CC(Oc1ncc(Cl)cc1Cl)C(=O)NCc1ccc(C2(C(F)(F)F)N=N2)cc1` (stereo not drawn) [MBX-2713] had a melting point of 112 °C. The concentration for half-maximal inhibition (IC50) in data set [1] (read-out: Avg. Secretion IC50) was above 100 µM.
As to `COc1ccc(CNC(=O)C(C)Oc2ncc(Cl)cc2Cl)cc1` (stereo not drawn) [MBX-2157], the melting point was 135 °C. In data set [1] (read-out: Avg. Secretion IC50), the IC50 amounted to 9.9 µM. Besides, the IC50 in data set [2] (setting [3]) is above 100 µM.
`CC(C)(Oc1ccc(Cl)cc1Cl)C(=O)NCc1ccc2c(c1)OCO2` [MBX-1685]: the melting point was determined as 92 °C. For the same molecule, the IC50 in data set [1] (read-out: Avg. Secretion IC50) is above 100 µM. In addition, the “effect of structural alteration on T3SS-mediated secretion inhibition” value (“effect … on T3SS-mediated secretion inhibition” for short) in data set [1] (vs. MBX-1641) is “significantly inferior performance”.
As to `CC(Oc1ccc(Cl)cc1Cl)C(=O)NCc1ccc2c(c1)n(C)c(=O)n2C` (stereo not drawn) [MBX-1996], the melting point came out at 180 °C. In addition, the IC50 in data set [1] (read-out: Avg. Secretion IC50) came to 25.5 µM. Further, in data set [2] (setting [3]), the IC50 is above 100 µM.
In the same order, the values of `COc1ccc(CNC(=O)C(C)Oc2ccc(F)cc2Cl)cc1` (stereo not drawn) [MBX-2028] are 97 °C, 75.3 µM and above 100 µM.
On to `CC(Oc1ccc(F)cc1Cl)C(=O)NCc1ccc2c(c1)OCO2` (stereo not drawn) [MBX-2026], for which the melting point stood at 95 °C.
The molecule `CC(Oc1ccc(Cl)cc1Cl)C(=O)NCc1cccc(N(C)C)c1` (stereo not drawn) [MBX-1960] displayed a melting point of 108 °C. Further, in data set [1] (read-out: Avg. Secretion IC50), the half-inhibitory concentration (IC50) was found to be 12.2 µM. In data set [2] (setting [3]), the half-inhibitory concentration (IC50) was 58 µM.
Turning to `COc1ccc(CNC(=O)C(C)Oc2ccc(F)cc2Cl)cc1OC` (stereo not drawn) [MBX-2027], the melting point worked out at 101 °C. The half-maximal inhibitory concentration (IC50) in data set [1] (read-out: Avg. Secretion IC50) turned out to be 100 µM.
The like results for `COc1ccc(CNC(=O)C(C)Nc2ccc(Cl)cc2Cl)cc1OC` (stereo not drawn) [MBX-2213] were, in that order, 132 °C and 58.7 µM.
With `COc1cc(CNC(=O)C(C)Oc2ccc(Cl)cc2Cl)cc(OC)c1OC` (stereo not drawn) [MBX-1944], the melting point is 119 °C. In data set [1] (read-out: Avg. Secretion IC50), the IC50 amounted to 55.5 µM. Also, the half-maximal inhibitory concentration (IC50) in data set [2] (setting [3]) is above 100 µM.
Consider `COC(=O)C(NC(=O)C(C)Oc1ccc(Cl)cc1Cl)c1ccc(F)cc1` (stereo not drawn) [MBX-2705], for which the melting point amounted to 84 °C. Also, the IC50 in data set [1] (read-out: Avg. Secretion IC50) stood at 6 µM.
On to `CC(Sc1ccc(Cl)cc1Cl)C(=O)NCc1ccc2c(c1)OCO2` (stereo not drawn) [MBX-2161], for which the melting point stood at 137 °C. Also, the IC50 in data set [1] (read-out: Avg. Secretion IC50) was determined as 5 µM. Further, the “IC50 values lower (T3SS secretion inhibition)” value in data set [1] (vs. MBX-1641) came out at 29%.
On to `CC(Oc1ccc(Cl)cc1Cl)c1nc(Cc2ccc(F)cc2)no1` (stereo not drawn) [MBX-2708, 5-[1-(2,4-dichlorophenoxy)ethyl]-3-(4-fluorobenzyl)-1,2,4-oxadiazole], for which the IC50 in data set [1] (read-out: Avg. Secretion IC50) is above 100 µM.
`COc1ccc(CNC(=O)C(C)Sc2ccc(Cl)cc2Cl)cc1OC` (stereo not drawn) [MBX-2162] showed a melting point of 112 °C. Further, in data set [1] (read-out: Avg. Secretion IC50), the half-inhibitory concentration (IC50) was found to be 30.4 µM. Further, the concentration for half-maximal inhibition (IC50) in data set [2] (setting [3]) was above 100 µM.
For the molecule `CC(Oc1ccc(Cl)cc1Cl)C(=O)NC(CO)c1ccc(F)cc1` (stereo not drawn) [MBX-2625], the 50% inhibitory concentration (IC50) in data set [1] (read-out: Avg. Secretion IC50) is 5 µM.
As to `CC(Nc1ccc(Cl)cc1Cl)C(=O)NCc1ccc(F)cc1` (stereo not drawn) [MBX-2215], the IC50 in data set [1] (read-out: Avg. Secretion IC50) was found to be 17.2 µM.
The molecule `COc1cccc(CNC(=O)C(C)Oc2ccc(Cl)cc2Cl)c1` (stereo not drawn) [MBX-1941] yielded a melting point of 119 °C. In addition, the IC50 in data set [1] (read-out: Avg. Secretion IC50) worked out at 17.2 µM.
The like results for `CC(Oc1ccc(Cl)cc1Cl)C(=O)NCc1ccc(-c2ccccc2)cc1` (stereo not drawn) [MBX-2022] were, in that order, 114 °C and 100 µM.
Take `CC(Oc1ccc(Cl)cc1Cl)C(=O)CCc1ccc(F)cc1` (stereo not drawn) [MBX-2719, 4-(2,4-dichlorophenoxy)-1-(4-fluorophenyl)pentan-3-one]: the IC50 in data set [1] (read-out: Avg. Secretion IC50) was above 100 µM.
Molecule `COc1ccc(CNC(=O)C(C)Nc2ccc(Cl)cc2Cl)cc1` (stereo not drawn) [MBX-2214] came in with a melting point of 125 °C. In data set [1] (read-out: Avg. Secretion IC50), the IC50 was 24.5 µM.
Take `CC(Oc1ccc(Cl)cc1Cl)C(=O)NCc1ccc(C2(C(F)(F)F)N=N2)cc1` (stereo not drawn) [MBX-2718]: the melting point is 117 °C. Also, in data set [1] (read-out: Avg. Secretion IC50), the 50% inhibitory concentration (IC50) was above 100 µM.
For `O=C(COc1ccc(Cl)cc1Cl)NCc1ccc2c(c1)OCO2` [MBX-1668], the melting point amounted to 117 °C. Also, the IC50 in data set [1] (read-out: Avg. Secretion IC50) is above 100 µM. For the same molecule, the “effect … on T3SS-mediated secretion inhibition” value in data set [1] (vs. MBX-1641) is reported as “significantly inferior performance”.
In the case of `CC(C)C(Oc1ccc(Cl)cc1Cl)C(=O)NCc1ccc2c(c1)OCO2` (stereo not drawn) [MBX-2146], the “effect … on T3SS-mediated secretion inhibition” value in data set [1] (vs. MBX-1641) is “significantly inferior performance”.
`COc1ccc(CNC(=O)C(C)Oc2ccc(Cl)cc2Cl)cc1` (stereo not drawn) [MBX-1940] displayed a melting point of 76 °C. In addition, the 50% inhibitory concentration (IC50) in data set [2] (setting [3]) came out at 12.5 µM.
The molecule `CC(Sc1ccc(Cl)cc1Cl)C(=O)NCc1ccc(F)cc1` (stereo not drawn) [MBX-2164] yielded a melting point of 142 °C. For the same molecule, the IC50 in data set [1] (read-out: Avg. Secretion IC50) is 4 µM.
In the same order, the values of `CC(Oc1ccc(Cl)cc1Cl)c1nc(-c2ccc(F)cc2)no1` (stereo not drawn) [MBX-2667, 5-[1-(2,4-dichlorophenoxy)ethyl]-3-(4-fluorophenyl)-1,2,4-oxadiazole] are 77 °C and above 100 µM.
For the molecule `CC(Oc1ccc(Cl)cc1Cl)C(=O)N1CCc2cc(F)ccc2C1` (stereo not drawn) [MBX-2189], the IC50 in data set [1] (read-out: Avg. Secretion IC50) and in data set [1] (read-out: Secretion IC50) was 111 µM in each case.
In the case of `CC(Oc1ccc(Cl)cc1Cl)C(=O)N(C)Cc1ccc2c(c1)OCO2` (stereo not drawn) [MBX-2160], the IC50 in data set [1] (read-out: Avg. Secretion IC50) worked out at 10.1 µM; in data set [2] (setting [3]), 24.3 µM. For the same molecule, in data set [1] (vs. MBX-1641), the “effect … on T3SS-mediated secretion inhibition” value is “slightly negative impact”.
As for `COc1ccc(CNC(=O)C(C)Oc2ccc(Cl)cc2Cl)c(OC)c1` (stereo not drawn) [MBX-1949], the melting point amounted to 117 °C. The IC50 in data set [1] (read-out: Avg. Secretion IC50) is 16.9 µM.
In turn, `COc1ccc(CNC(=O)C(C)Oc2ccc(Cl)cc2Cl)cc1OC` (stereo not drawn) [MBX-1942] registered a melting point of 127 °C. In data set [2] (setting [3]), the 50% inhibitory concentration (IC50) was above 100 µM.
For `CC(Oc1ccc(Cl)cc1Cl)C(=O)NCc1cnc2[nH]ccc2c1` (stereo not drawn) [MBX-2709], the melting point came out at 198 °C. Also, in data set [1] (read-out: Avg. Secretion IC50), the IC50 turned out to be 8.8 µM.
As for `CC(Oc1ccc(Cl)cc1Cl)C(=O)N1CCc2cc3c(cc2C1)OCO3` (stereo not drawn) [MBX-2188], the IC50 in data set [1] (read-out: Avg. Secretion IC50) and in data set [1] (read-out: Secretion IC50) was 114 µM each time.
For `CC(Oc1ccc(Cl)cc1Cl)C(=O)NC(C(=O)O)c1ccc(F)cc1` (stereo not drawn) [MBX-2707], the melting point was found to be 160 °C. Moreover, in data set [1] (read-out: Avg. Secretion IC50), the IC50 was above 100 µM.
Turning to `CC(Oc1ccc(Cl)cc1Cl)C(=O)NCc1ccc(F)nc1` (stereo not drawn) [MBX-2677], the melting point amounted to 55 °C. Further, in data set [1] (read-out: Avg. Secretion IC50), the IC50 turned out to be 40 µM.
With `Cc1ccccc1CNC(=O)C(C)Oc1ccc(Cl)cc1Cl` (stereo not drawn) [MBX-1951], the melting point stood at 128 °C. Moreover, the 50% inhibitory concentration (IC50) in data set [2] (setting [3]) came to 66.7 µM.
